In patent publication US20110105576A1 (priority 2008, published 2011):
Like-named read-outs stand apart in the source and are kept apart here.

Key:
[1] = tested on: Fusarium graminearum (ear rot of maize); type: cell-based; conditions: solo, 48 hrs
[2] = tested on: Fusarium graminearum (ear rot of maize); type: cell-based; conditions: solo, 48 hrs; remark: listed apart in the source

CCCN(CCOc1c(Cl)cc(Cl)cc1Cl)C(=O)n1ccnc1 [A, prochloraz]
Observed control in % ([1]; 0.004 ppm (mg a.i./liter final medium)): 0%
Observed control in % ([1]; 0.008 ppm): 3%
Observed control in % ([1]; 0.016 ppm): 6%
Observed control in % ([1]; 0.031 ppm): 11%
Observed control in % ([1]; 0.063 ppm): 25%
Observed control in % ([1]; 0.125 ppm): 86%
Observed control in % ([1]; 0.25 ppm): 94%
Observed control in % ([1]; 0.5 ppm): 96%
Observed control in % ([1]; 1.0 ppm): 96%
Observed control in % ([1]; 2.0 ppm): 96%

CC1(C)CCC(Cc2ccc(Cl)cc2)C1(O)Cn1cncn1 (stereo not drawn) [B, metconazole]
Observed control in % ([2]; 0.008 ppm): 3%
Observed control in % ([2]; 0.25 ppm): 93%
Observed control in % ([2]; 0.5 ppm): 95%
Observed control in % ([2]; 2.0 ppm): 96%
Observed control in % ([1]; 0.008 ppm): 3%
Observed control in % ([1]; 0.25 ppm): 93%
Observed control in % ([1]; 0.5 ppm): 95%
Observed control in % ([1]; 2.0 ppm): 96%
